# Where “and” joins values, the source holds several entries; their conditions need not be identical. Identical values can stand only once.
# Columns and labels:
# [1] = tested on: normal cell lines: fallopian tube epithelium (FT240), ovarian surface epithelium (OSE22), first trimester placental fibroblasts (FTP); assay: Cell confluence of normal cell lines grown with telotristat ethyl; format: cell-based; details: 0, 5, 15 and 30 μM telotristat ethyl, 24 to 96 hours
# Protocol: This example provides experiments assessing the effects of telotristat ethyl on three aggressive cancer cell lines—liposarcoma (94T778), colon cancer (HT-29), and cholangiocarcinoma (TFK-1)—and three “normal” cell lines—fallopian tube epithelium (FT240), ovarian surface epithelium (OSE22), and first trimester placental fibroblasts (FTP).
# The cells were grown with 0, 5, 15 and 30 μM telotristat ethyl, plated into four-chambered slides with an initial confluence of at least 30%, and cultured for 24 to 96 hours. At the end of each 24-hour period, cell density was measured with hematoxylin, and the presence of 5-HT was assessed by immunohistochemistry. Experiments were performed in triplicate. Cell confluence was determined, and the 5-HT expression was recorded as an H-score.
# [2] = tested on: locally advanced or metastatic neuroendocrine tumors (NETs); assay: Retrospective single arm chart review (TELEACE): tumor progression, PFS, tumor size; format: in vivo, human; design: patients with progression-free survival (without tumor progression or death) (%) / Progression-free survival: Patients without outcome (%): concentration or dose not given beside the values; details: for Difference in tumor size between pre and post-TE initiation, Estimate: longitudinal generalized linear regression (GEE), 95% CI (−16.1%, −0.2%), P=0.045, negative = decrease; for patients with progression-free survival (without tumor progression or death) (%) / patients without tumor progression (%): overall population
# From the text: This example provides a retrospective, single arm study of patients with locally advanced or metastatic neuroendocrine tumors (NETs) and documented carcinoid syndrome (CS). The patients received telotristat ethyl for at least 6 months. […] This example reports progression-free survival (PFS), time to tumor progression, changes in carcinoid syndrome (CS) symptoms, and indictors of overall health.
# Patients with poorly differentiated neuroendocrine tumors, mixed tumor types or conflicting clinical trial enrollment were excluded. Descriptive statistics, Kaplan-Meier and Chi-square tests were used to evaluate PFS, tumor progression, changes in CS symptoms, body weight and Eastern Cooperative Oncology Group (ECOG) performance status before and after telotristat ethyl initiation. Subgroup analyses were conducted in patients with the same pre- and post-telotristat ethyl background treatment.
# Adults with unresectable locally advanced or metastatic neuroendocrine tumors and evidence of carcinoid syndrome documented in their medical chart were eligible for inclusion if they had received telotristat ethyl for at least 6 months and had any additional carcinoid syndrome and neuroendocrine tumor treatment information available for at least six months after telotristat ethyl initiation or until death. The presence of carcinoid syndrome was based on the participating physician's assessment of information contained in the medical charts. Participating physicians were recruited by a professional recruiting organization (Dynata, Plano, Tex., USA) and had to have treated at least one eligible patient with telotristat ethyl in the past 12 months in order to participate. Eligible records had to have documented tumor size and tumor response assessments before and after telotristat ethyl initiation, including at least two radiological scans in the 12 months before telotristat ethyl and at least one scan after telotristat ethyl initiation. Patients with a histologically poorly differentiated neuroendocrine tumor based on grade (G3) or Ki67 index >20%, mixed tumor types according to physician notes, or documented enrollment in any clinical trial during the 6 months after telotristat ethyl initiation were excluded.
# Time to tumor progression was defined as the time from telotristat ethyl initiation to the first documented tumor progression in the medical chart. […] Progression-free survival (PFS) was defined as the time from telotristat ethyl initiation to tumor progression or death. […] Physician-assessed changes in body weight, Eastern Cooperative Oncology Group (ECOG) Performance Status, and CS symptoms including diarrhea, flushing, abdominal pain, nausea and ascites were abstracted from medical charts before and after telotristat ethyl initiation.
# In order to evaluate the effect of telotristat ethyl treatment on secondary clinical outcomes, analyses were conducted in the overall population and in a subgroup of patients who had the same documented non-telotristat ethyl neuroendocrine tumor treatment before and after telotristat ethyl initiation. Descriptive statistics summarized patient demographic and clinical characteristics, and changes in body weight and ECOG Performance Status after telotristat ethyl treatment initiation. Kaplan-Meier analyses estimated median time to tumor progression and median PFS. Chi-square test evaluated changes in documented CS symptoms (improved vs same/worsened) before and after telotristat ethyl initiation. All analyses were performed using SAS version 9.4 (SAS Institute, Cary, N.C., USA).
# A radiological scan performed immediately before telotristat ethyl initiation was evaluated. A radiological scan performed post-telotristat ethyl was also examined. Paired t-test was used to calculate P-value for tumor size. Statistical significance (P<0.001) was also confirmed using Wilcoxon signed rank test. […]
# [3] = Physician assessed outcomes in TELEACE subgroup with worsening tumor status at TE initiation; format: in vivo, human
# From the text: A follow-up analysis of real-world clinical practice experience with TE was initiated in patients with physician-documented worsening tumor status based on radiological reports. The analysis was directed to the subgroup of patients from the TELEACE study with worsening tumor status at the time of TE initiation. Baseline carcinoid syndrome (CS) symptoms, Eastern Cooperative Oncology Group (ECOG) performance status, and weight were compared after at least six months of TE treatment.
# A total of 33 patients (17%) in TELEACE had worsened tumor status at the time TE of initiation. The mean patient age was 60 years, with 58% female and 76% white. The majority of these patients had intermediate grade tumor (67%). Prior to TE initiation, 61% had received SSA treatment, and 33% had received other NET treatment, which included liver-directed therapy, surgery, chemotherapy, targeted therapy, and Peptide Receptor Radionuclide Therapy (PRRT). The average duration of TE treatment was 14±10.5 months. […] Additionally, a majority of patients had significant improvement/remained stable in CS symptoms, ECOG performance status, and weight after TE initiation (Table 6).
# [4] = 6 months after TE initiation, listed as TE
# [5] = 12 months after TE initiation, listed as TE
# [6] = treatment subgroup n=65, 12 months
# [7] = treatment subgroup n=65, 18 months
structure (smiles),measurement,setting,value
"CCOC(=O)[C@@H](N)Cc1ccc(-c2cc(O[C@H](c3ccc(Cl)cc3-n3ccc(C)n3)C(F)(F)F)nc(N)n2)cc1 [telotristat ethyl, (S)-ethyl 2-amino-3-(4-(2-amino-6-((R)-1-(4-chloro-2-(3-methyl-1H-pyrazol-1-yl)phenyl)-2,2,2-trifluoroethoxy)pyrimidin-4-yl)phenyl)propanoate]",cell confluence,[1],minimally impacted
same,"Tumor size (cm) Change from baseline, Mean ± SD","[2]; N=200, P<0.001",−0.5 ± 1.8 cm
same,"Tumor size (cm) Post-TE initiation, Mean (IQR)","[2]; N=200, pre-TE 3.5 (2.3, 5.0)","3.0 (2.0, 4.8) cm"
same,"Tumor size (cm) Post-TE initiation, Mean ± SD","[2]; N=200, pre-TE 3.9 ± 2.2",3.4 ± 2.3 cm
same,patients with improved (responded completely or partially) tumor response post-TE initiation,[2]; among 33 patients with worsened (progressed) tumor response pre-TE initiation,45%
same,average (SD) tumor size reduction,"[2]; from scan immediately before TE initiation until last scan post-TE, P<0.001",0.5 (1.8) cm
same,"Difference in tumor size between pre and post-TE initiation, Estimate",[2],−8.5%
same,"Difference in tumor size between pre and post-TE initiation, Estimate",[2]; listed as TE,−8.5%
same,median progression-free survival,"[2]; overall population n=200, Kaplan-Meier, IQR 17.8, 39.8",23.7 months
same,median time to tumor progression,"[2]; overall population n=200, Kaplan-Meier, IQR 18.7, 39.8",39.8 months
same,patients with progression-free survival (without tumor progression or death) (%),[2]; 6 months after TE initiation,90% and 89.5%
same,patients without tumor progression (%),[2]; 6 months after TE initiation,92%
same,patients with progression-free survival (without tumor progression or death) (%),[2]; [4],89.5%
same,patients without tumor progression (%),[2]; [4],92.0%
same,patients with progression-free survival (without tumor progression or death) (%),[2]; 12 months after TE initiation,80% and 79.9%
same,patients without tumor progression (%),[2]; 12 months after TE initiation,87% and 86.8%
same,patients with progression-free survival (without tumor progression or death) (%),[2]; [5],79.9%
same,patients without tumor progression (%),[2]; [5],86.8%
same,patients with progression-free survival (without tumor progression or death) (%),[2]; 18 months after TE initiation,72.1%
same,patients without tumor progression (%),[2]; 18 months after TE initiation,78.3%
same,Tumor progression: Patients without outcome (%),"[2]; treatment subgroup n=65 (same background treatment pre/post TE), 6 months",100.0%
same,Progression-free survival: Patients without outcome (%),"[2]; treatment subgroup n=65, 6 months",96.9%
same,Progression-free survival: Patients without outcome (%),[2]; [6],87.5%
same,Tumor progression: Patients without outcome (%),[2]; [6],90.4%
same,Progression-free survival: Patients without outcome (%),[2]; [7],87.5%
same,Tumor progression: Patients without outcome (%),[2]; [7],90.4%
same,Diarrhea: Improved,"[3]; 33 patients with worsened tumor status at TE initiation, n = 26, P<0.001",88%
same,CS symptoms compared to baseline measures,"[3]; 33 patients with worsened tumor status, TE treatment 14±10.5 months",each patient experienced improvement in at least one CS symptom
same,Nausea: Remained the Same,"[3]; worsened tumor status subgroup, n = 4",20%
same,Nausea: Improved,"[3]; worsened tumor status subgroup, n = 4, P=0.432",80%
same,Abdominal pain: Remained the Same,"[3]; worsened tumor status subgroup, n = 8",11%
same,Abdominal pain: Improved,"[3]; worsened tumor status subgroup, n = 8, P=0.020",89%
same,Flushing: Remained the Same,"[3]; worsened tumor status subgroup, n = 14",18%
same,Flushing: Improved,"[3]; worsened tumor status subgroup, n = 14, P=0.008",82%
same,Diarrhea: Remained the Same,"[3]; worsened tumor status subgroup, n = 26",12%
same,Weight: Remained the Same,"[3]; worsened tumor status subgroup, n = 31",55%
same,Weight: Improved,"[3]; worsened tumor status subgroup, n = 31, P=0.017",32%
same,ECOG score: Remained the Same,"[3]; worsened tumor status subgroup, n = 33",73%
same,ECOG score: Improved,"[3]; worsened tumor status subgroup, n = 33, P<0.001",24%

# Source: US20210353624A1, “METHOD OF TREATING CANCER WITH TELOTRISAT OR A PRODRUG THEREOF” (TerSera Therapeutics LLC, priority 2020, published 2021)
